Test results published in US20130273196A1, “Pet Food Compositions for Inducing a Satiety Response” (HILL'S PET NUTRITION, INC, priority 2010, published 2013).

What was measured:
NPY5R = experiment: Affymetrix canine GeneChip gene expression analysis in canine cell lines, NPY5R; assay type: cell-based
Protocol: Gene expression was analyzed using Affymetrix Canine 1 and Canine 2 GeneChip Arrays available commercially from Affymetrix, Inc., Santa Clara, Calif. 95051. Total RNA is reverse transcribed into cDNA. The cDNA is used to generate cRNA which is fragmented and used as probes for GeneChip hybridization. The gene chip is washed and the hybridization signal is measured with an Affymetrix laser scanner. The hybridization data is then validated and normalized for further analysis. Materials: Affymetrix provided most of the reagents and kit. Other reagents listed in the Affymetrix Manual but not supplied in the kit were obtained separately. Refer to GeneChip Expression Analysis Technical Manual (701021 Rev. 4) for the details. Equipment: Eppendorf Microcentrifuge, 1.5 mL DNase and RNase free/sterile microcentrifuge tubes, 50 mL DNase and RNase free/sterile disposable polypropylene tubes, P1000, […] and P2 Rainin Pipetman pipettes, Filter pipette tips for P1000, […] and P2 pipettes, DNase and RNase free/sterile, and Peltier Thermal Cycler PTC-200. Procedure: All procedures followed exactly as described in GeneChip Expression Analysis Technical Manual (Affymetrix Copyright 1999-2003). 5 micrograms of total RNA were used for the first strand cDNA synthesis. Used either Peltier Thermal Cycler PTC-200 or heat block for temperature control on reactions and probe denaturing. The quality control was performed using RNA NanoDrop chips with BioAnalyer 2100. Used 100 Format (Midi Array) for the canine genechip. […] The solvent at the higher of the two concentrations was used as a control. […] Gene expression was measured for the treatment cell lines and controls. The gene expression data was determined to be either “up” or “down”-regulated for any given treatment. The decision on whether a gene is “up” or “down” is based on the fold change, which is calculated as treatment intensity/control intensity for each individual probe.

NPY1R = experiment: Affymetrix canine GeneChip gene expression analysis in canine cell lines, NPY1R; assay type: cell-based; conditions: in two cell lines tested, amount tested 0.005 mg/mL, 0.025 mg/mL
Protocol: Gene expression was analyzed using Affymetrix Canine 1 and Canine 2 GeneChip Arrays available commercially from Affymetrix, Inc., Santa Clara, Calif. 95051. Total RNA is reverse transcribed into cDNA. The cDNA is used to generate cRNA which is fragmented and used as probes for GeneChip hybridization. The gene chip is washed and the hybridization signal is measured with an Affymetrix laser scanner. The hybridization data is then validated and normalized for further analysis.
Materials: Affymetrix provided most of the reagents and kit. Other reagents listed in the Affymetrix Manual but not supplied in the kit were obtained separately. Refer to GeneChip Expression Analysis Technical Manual (701021 Rev. 4) for the details. […]
Affymetrix canine gene chips Canine-1 and Canine-2 are used to determine the effect of various test substances or ingredients on gene expression in four canine cell lines and appropriate controls. […] Gene expression was measured for the treatment cell lines and controls. The gene expression data was determined to be either “up” or “down”-regulated for any given treatment. The decision on whether a gene is “up” or “down” is based on the fold change, which is calculated as treatment intensity/control intensity for each individual probe.

`O=C(O[C@@H]1Cc2c(O)cc(O)cc2O[C@@H]1c1cc(O)c(O)c(O)c1)c1cc(O)c(O)c(O)c1` [Epigallocatechin Gallate, epigallocatechin gallate] was tested, and the Fold change (NPY5R; in all cell lines tested, amount tested 20 ng/mL, 80 ng/mL, fold change = treatment intensity/control intensity) was −1.33 (in all cell lines.

In the case of `O=c1cc(-c2ccc(O)c(O)c2)oc2cc(O)cc(O)c12` [Luteolin, luteolin], the Fold change (NPY5R; in two cell lines tested, amount tested 1 uM, 10 uM) is reported as 1.56 (in two cell lines tested).

In the case of `CC/C=C\C/C=C\C/C=C\C/C=C\C/C=C\CCCC(=O)O` [EPA], the Fold change (NPY1R) is reported as −1.43 (in two cell lines and the Fold change (NPY5R; in two cell lines tested, amount tested 0.005 mg/mL, 0.025 mg/mL) is reported as −1.82 (in two cell lines.
